# From PubChem BioAssay (NCI)
#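 Cultured in 96-well plates, cells were exposed to test compound for 48 hours across five concentrations. GI50 is the concentration that inhibits growth by half. Definition used: TGI = concentration required for complete inhibition of growth.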
# Legend:
# Experiment in all cases: DTP human tumour cell line panel, 48 h
# SNB-19 CNS = tested on: SNB-19 CNS
# TK-10 renal = tested on: TK-10 renal
# A549 NSCLC = tested on: A549 NSCLC
# NCI/ADR-RES ovarian = tested on: NCI/ADR-RES ovarian
# SF-268 CNS = tested on: SF-268 CNS
# UACC-62 melanoma = tested on: UACC-62 melanoma
# DU-145 prostate = tested on: DU-145 prostate
# NCI-H522 lung = tested on: NCI-H522 lung
# NCI-H226 lung = tested on: NCI-H226 lung
# LOX IMVI melanoma = tested on: LOX IMVI melanoma
# CAKI-1 renal = tested on: CAKI-1 renal
# RXF 393 renal = tested on: RXF 393 renal
# MCF7 breast = tested on: MCF7 breast
# SK-OV-3 ovarian = tested on: SK-OV-3 ovarian
# RPMI-8226 leukemia = tested on: RPMI-8226 leukemia
# UO-31 renal = tested on: UO-31 renal
# SN12C renal = tested on: SN12C renal
# OVCAR-5 ovarian = tested on: OVCAR-5 ovarian
# SK-MEL-5 melanoma = tested on: SK-MEL-5 melanoma
# HL-60(TB) leukemia = tested on: HL-60(TB) leukemia
# NCI-H23 lung = tested on: NCI-H23 lung
# UACC-257 melanoma = tested on: UACC-257 melanoma
# CCRF-CEM leukemia = tested on: CCRF-CEM leukemia
# NCI-H460 lung = tested on: NCI-H460 lung
# K-562 leukemia = tested on: K-562 leukemia
# MALME-3M melanoma = tested on: MALME-3M melanoma
# OVCAR-3 ovarian = tested on: OVCAR-3 ovarian
# T-47D breast = tested on: T-47D breast
# OVCAR-4 ovarian = tested on: OVCAR-4 ovarian
# MDA-MB-435 = tested on: MDA-MB-435
# SW-620 colon = tested on: SW-620 colon
# M14 melanoma = tested on: M14 melanoma
# SK-MEL-28 melanoma = tested on: SK-MEL-28 melanoma
# HOP-92 NSCLC = tested on: HOP-92 NSCLC
# HOP-62 NSCLC = tested on: HOP-62 NSCLC
# HCT-116 colon = tested on: HCT-116 colon
# SK-MEL-2 melanoma = tested on: SK-MEL-2 melanoma
# HT29 colon = tested on: HT29 colon
# KM12 colon = tested on: KM12 colon
# MOLT-4 leukemia = tested on: MOLT-4 leukemia
# 786-0 renal = tested on: 786-0 renal
# HS 578T breast = tested on: HS 578T breast
# HCC-2998 colon = tested on: HCC-2998 colon
# OVCAR-8 ovarian = tested on: OVCAR-8 ovarian
# BT-549 breast = tested on: BT-549 breast
# SR leukemia = tested on: SR leukemia
# A498 renal = tested on: A498 renal
# MDA-MB-231 breast = tested on: MDA-MB-231 breast
# PC-3 prostate = tested on: PC-3 prostate
# U251 CNS = tested on: U251 CNS
# SF-539 CNS = tested on: SF-539 CNS
# SNB-75 CNS = tested on: SNB-75 CNS
# ACHN renal = tested on: ACHN renal
# COLO 205 colon = tested on: COLO 205 colon
# SF-295 CNS = tested on: SF-295 CNS
# HCT-15 colon = tested on: HCT-15 colon
# IGROV1 ovarian = tested on: IGROV1 ovarian
smiles,measurement,setting,value
Cc1ccc(OCCCCCCNCCO)c(C)c1,GI50,SNB-19 CNS,14.3 µM
same,TGI,SNB-19 CNS,31 µM
same,GI50,TK-10 renal,16 µM
same,TGI,TK-10 renal,30 µM
same,GI50,A549 NSCLC,17.8 µM
same,TGI,A549 NSCLC,34.8 µM
same,GI50,NCI/ADR-RES ovarian,16.3 µM
same,TGI,NCI/ADR-RES ovarian,37.1 µM
same,GI50,SF-268 CNS,16 µM
same,TGI,SF-268 CNS,31.1 µM
same,GI50,UACC-62 melanoma,12.1 µM
same,TGI,UACC-62 melanoma,25.7 µM
same,GI50,DU-145 prostate,16.7 µM
same,TGI,DU-145 prostate,30.6 µM
same,GI50,NCI-H522 lung,14.7 µM
same,TGI,NCI-H522 lung,30.1 µM
same,GI50,NCI-H226 lung,15.1 µM
same,TGI,NCI-H226 lung,32.9 µM
same,GI50,LOX IMVI melanoma,15 µM
same,TGI,LOX IMVI melanoma,29.7 µM
same,GI50,CAKI-1 renal,16.2 µM
same,TGI,CAKI-1 renal,32.2 µM
same,GI50,RXF 393 renal,6.53 µM
same,TGI,RXF 393 renal,20.8 µM
same,GI50,MCF7 breast,13.9 µM
same,TGI,MCF7 breast,28.7 µM
same,GI50,SK-OV-3 ovarian,15.6 µM
same,TGI,SK-OV-3 ovarian,29.8 µM
same,GI50,RPMI-8226 leukemia,15.5 µM
same,TGI,RPMI-8226 leukemia,37.9 µM
same,GI50,UO-31 renal,12.1 µM
same,TGI,UO-31 renal,26.4 µM
same,GI50,SN12C renal,12.7 µM
same,TGI,SN12C renal,26.9 µM
same,GI50,OVCAR-5 ovarian,13.7 µM
same,TGI,OVCAR-5 ovarian,28 µM
same,GI50,SK-MEL-5 melanoma,10.4 µM
same,TGI,SK-MEL-5 melanoma,22.4 µM
same,GI50,HL-60(TB) leukemia,0.323 µM
same,TGI,HL-60(TB) leukemia,1.45 µM
same,GI50,NCI-H23 lung,15.5 µM
same,TGI,NCI-H23 lung,35.4 µM
same,GI50,UACC-257 melanoma,14.2 µM
same,TGI,UACC-257 melanoma,29.6 µM
same,GI50,CCRF-CEM leukemia,15.6 µM
same,TGI,CCRF-CEM leukemia,36.7 µM
same,GI50,NCI-H460 lung,14.9 µM
same,TGI,NCI-H460 lung,30.8 µM
same,GI50,K-562 leukemia,12.2 µM
same,TGI,K-562 leukemia,31.4 µM
same,GI50,MALME-3M melanoma,17 µM
same,TGI,MALME-3M melanoma,35.3 µM
same,GI50,OVCAR-3 ovarian,15.5 µM
same,TGI,OVCAR-3 ovarian,29.6 µM
same,GI50,T-47D breast,11.7 µM
same,TGI,T-47D breast,30.2 µM
same,GI50,OVCAR-4 ovarian,13.6 µM
same,TGI,OVCAR-4 ovarian,28.8 µM
same,GI50,MDA-MB-435,12.3 µM
same,TGI,MDA-MB-435,28.1 µM
same,GI50,SW-620 colon,16.3 µM
same,TGI,SW-620 colon,33 µM
same,GI50,M14 melanoma,16.3 µM
same,TGI,M14 melanoma,35.3 µM
same,GI50,SK-MEL-28 melanoma,15.4 µM
same,TGI,SK-MEL-28 melanoma,29.9 µM
same,GI50,HOP-92 NSCLC,2.36 µM
same,TGI,HOP-92 NSCLC,13.4 µM
same,GI50,HOP-62 NSCLC,15 µM
same,TGI,HOP-62 NSCLC,30.8 µM
same,GI50,HCT-116 colon,14.2 µM
same,TGI,HCT-116 colon,31.6 µM
same,GI50,SK-MEL-2 melanoma,19.8 µM
same,TGI,SK-MEL-2 melanoma,37.6 µM
same,GI50,HT29 colon,11.3 µM
same,TGI,HT29 colon,25.6 µM
same,GI50,KM12 colon,17.2 µM
same,TGI,KM12 colon,32.4 µM
same,GI50,MOLT-4 leukemia,16.3 µM
same,TGI,MOLT-4 leukemia,36.8 µM
same,GI50,786-0 renal,14 µM
same,TGI,786-0 renal,28.8 µM
same,GI50,HS 578T breast,14.3 µM
same,TGI,HS 578T breast,35.5 µM
same,GI50,HCC-2998 colon,14.7 µM
same,TGI,HCC-2998 colon,30.2 µM
same,GI50,OVCAR-8 ovarian,17.8 µM
same,TGI,OVCAR-8 ovarian,35.9 µM
same,GI50,BT-549 breast,13.5 µM
same,TGI,BT-549 breast,28 µM
same,GI50,SR leukemia,14.1 µM
same,TGI,SR leukemia,35.5 µM
same,GI50,A498 renal,3.48 µM
same,TGI,A498 renal,17.7 µM
same,GI50,MDA-MB-231 breast,9.11 µM
same,TGI,MDA-MB-231 breast,25.5 µM
same,GI50,PC-3 prostate,14 µM
same,TGI,PC-3 prostate,29.7 µM
same,GI50,U251 CNS,12.7 µM
same,TGI,U251 CNS,26.8 µM
same,GI50,SF-539 CNS,14.7 µM
same,TGI,SF-539 CNS,28.6 µM
same,GI50,SNB-75 CNS,6.47 µM
same,TGI,SNB-75 CNS,20.1 µM
same,GI50,ACHN renal,13.8 µM
same,TGI,ACHN renal,27.8 µM
same,GI50,COLO 205 colon,10 µM
same,TGI,COLO 205 colon,26.3 µM
same,GI50,SF-295 CNS,17.8 µM
same,TGI,SF-295 CNS,39 µM
same,GI50,HCT-15 colon,15.8 µM
same,TGI,HCT-15 colon,33.8 µM
same,GI50,IGROV1 ovarian,16.2 µM
same,TGI,IGROV1 ovarian,35.3 µM
